Key:
[1] = Human hepatocyte stability; format: in vitro ADME; details: hepatocytes
PR = biological target: T1, PR (Homo sapiens, UniProt P06401); assay: Reporter assay of gene transcription activity, PR; format: cell-based
T1 sequence (P06401 1-933): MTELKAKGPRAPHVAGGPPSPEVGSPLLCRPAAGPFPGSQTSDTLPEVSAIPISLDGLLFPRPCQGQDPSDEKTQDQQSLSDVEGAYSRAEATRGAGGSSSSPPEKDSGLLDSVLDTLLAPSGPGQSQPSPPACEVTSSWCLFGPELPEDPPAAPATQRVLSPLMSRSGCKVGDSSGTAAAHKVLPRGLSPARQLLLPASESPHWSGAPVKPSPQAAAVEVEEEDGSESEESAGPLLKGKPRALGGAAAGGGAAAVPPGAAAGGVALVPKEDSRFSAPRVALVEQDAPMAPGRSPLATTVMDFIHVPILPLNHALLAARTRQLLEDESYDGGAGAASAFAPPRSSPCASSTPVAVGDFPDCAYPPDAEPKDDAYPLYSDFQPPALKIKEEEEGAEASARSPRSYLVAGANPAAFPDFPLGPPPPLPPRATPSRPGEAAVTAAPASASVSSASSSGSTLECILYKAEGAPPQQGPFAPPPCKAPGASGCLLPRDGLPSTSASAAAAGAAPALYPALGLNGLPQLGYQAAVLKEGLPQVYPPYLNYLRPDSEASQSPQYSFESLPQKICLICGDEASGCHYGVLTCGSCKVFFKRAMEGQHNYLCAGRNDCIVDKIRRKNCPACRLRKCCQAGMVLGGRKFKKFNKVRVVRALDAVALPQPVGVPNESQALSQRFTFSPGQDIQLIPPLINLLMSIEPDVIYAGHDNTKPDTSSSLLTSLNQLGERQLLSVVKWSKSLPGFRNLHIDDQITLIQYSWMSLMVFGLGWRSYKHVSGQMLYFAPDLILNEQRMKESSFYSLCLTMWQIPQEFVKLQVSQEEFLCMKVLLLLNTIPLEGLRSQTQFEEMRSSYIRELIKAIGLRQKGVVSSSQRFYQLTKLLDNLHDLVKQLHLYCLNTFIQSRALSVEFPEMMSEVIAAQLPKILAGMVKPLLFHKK

[2] = system: CAMA-1 ESR1 Asp538Gly cells; assay: CAMA-1 cell proliferation, ESR1 Asp538Gly; format: cell-based; details: Homo sapiens, CAMA-1, read-out: CAMA-1 cell prolif. pIC50 (converted)
[3] = Single-dose pharmacokinetics, monkey; format: in vivo; details: serum
CYP 3A4 = CYP 3A4 (Homo sapiens, UniProt P08684); assay: CYP inhibition in human liver microsomes; format: in vitro ADME
hERG ion channels = hERG ion channels (Homo sapiens, UniProt Q12809); assay: hERG patch clamp assay; format: cell-based; details: at 30 μM
ST941/C cells = assay: ST941/C cell proliferation; format: cell-based; details: read-out: ST941/C cell prolif. pIC50 (converted)
ESR1 Asp538Gly = biological target: T2, ESR1 Asp538Gly (Homo sapiens, UniProt P03372, D538G); assay: AP; format: cell-based
T2 sequence (P03372 1-595 D538G): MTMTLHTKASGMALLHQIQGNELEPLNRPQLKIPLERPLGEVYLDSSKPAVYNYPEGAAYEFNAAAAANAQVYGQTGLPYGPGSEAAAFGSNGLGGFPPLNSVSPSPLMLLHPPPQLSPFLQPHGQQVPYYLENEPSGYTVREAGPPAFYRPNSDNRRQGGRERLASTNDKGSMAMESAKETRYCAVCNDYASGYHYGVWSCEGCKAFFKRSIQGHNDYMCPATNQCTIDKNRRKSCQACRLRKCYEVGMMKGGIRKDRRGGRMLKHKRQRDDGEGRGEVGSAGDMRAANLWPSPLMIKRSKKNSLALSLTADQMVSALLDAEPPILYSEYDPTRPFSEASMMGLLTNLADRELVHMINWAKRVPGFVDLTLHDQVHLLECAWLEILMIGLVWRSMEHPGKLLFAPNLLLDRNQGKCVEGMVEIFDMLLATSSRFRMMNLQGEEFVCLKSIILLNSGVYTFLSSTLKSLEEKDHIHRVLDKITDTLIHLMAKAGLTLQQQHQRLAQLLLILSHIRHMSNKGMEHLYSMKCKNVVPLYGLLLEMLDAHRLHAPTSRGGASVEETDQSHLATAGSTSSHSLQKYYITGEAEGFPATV

[4] = Single-dose pharmacokinetics, dog; format: in vivo; details: Beagle, serum, 10 mg/kg
[5] = Plasma protein binding, rapid equilibrium dialysis, rat plasma; format: in vitro ADME
ERβ = ERβ (Homo sapiens, UniProt Q92731); assay: Reporter assay of gene transcription activity, ERβ; format: cell-based
ERβ, sequence (Q92731 whole entry, species assumed): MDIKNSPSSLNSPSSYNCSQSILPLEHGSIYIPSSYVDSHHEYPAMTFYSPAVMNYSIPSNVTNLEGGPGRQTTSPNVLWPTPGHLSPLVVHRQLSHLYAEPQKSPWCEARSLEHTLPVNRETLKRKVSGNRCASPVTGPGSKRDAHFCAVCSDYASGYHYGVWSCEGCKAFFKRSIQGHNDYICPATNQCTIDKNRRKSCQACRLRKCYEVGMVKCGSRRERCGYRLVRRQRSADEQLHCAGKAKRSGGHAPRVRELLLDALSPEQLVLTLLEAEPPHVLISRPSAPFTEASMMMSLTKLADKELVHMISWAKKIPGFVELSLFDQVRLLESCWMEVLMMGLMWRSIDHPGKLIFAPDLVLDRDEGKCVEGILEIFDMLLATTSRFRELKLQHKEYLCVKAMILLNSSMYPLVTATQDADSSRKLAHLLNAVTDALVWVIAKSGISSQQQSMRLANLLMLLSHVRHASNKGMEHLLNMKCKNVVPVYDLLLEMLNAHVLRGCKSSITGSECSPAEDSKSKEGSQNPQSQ

hERG ion channels, sequence (Q12809 whole entry): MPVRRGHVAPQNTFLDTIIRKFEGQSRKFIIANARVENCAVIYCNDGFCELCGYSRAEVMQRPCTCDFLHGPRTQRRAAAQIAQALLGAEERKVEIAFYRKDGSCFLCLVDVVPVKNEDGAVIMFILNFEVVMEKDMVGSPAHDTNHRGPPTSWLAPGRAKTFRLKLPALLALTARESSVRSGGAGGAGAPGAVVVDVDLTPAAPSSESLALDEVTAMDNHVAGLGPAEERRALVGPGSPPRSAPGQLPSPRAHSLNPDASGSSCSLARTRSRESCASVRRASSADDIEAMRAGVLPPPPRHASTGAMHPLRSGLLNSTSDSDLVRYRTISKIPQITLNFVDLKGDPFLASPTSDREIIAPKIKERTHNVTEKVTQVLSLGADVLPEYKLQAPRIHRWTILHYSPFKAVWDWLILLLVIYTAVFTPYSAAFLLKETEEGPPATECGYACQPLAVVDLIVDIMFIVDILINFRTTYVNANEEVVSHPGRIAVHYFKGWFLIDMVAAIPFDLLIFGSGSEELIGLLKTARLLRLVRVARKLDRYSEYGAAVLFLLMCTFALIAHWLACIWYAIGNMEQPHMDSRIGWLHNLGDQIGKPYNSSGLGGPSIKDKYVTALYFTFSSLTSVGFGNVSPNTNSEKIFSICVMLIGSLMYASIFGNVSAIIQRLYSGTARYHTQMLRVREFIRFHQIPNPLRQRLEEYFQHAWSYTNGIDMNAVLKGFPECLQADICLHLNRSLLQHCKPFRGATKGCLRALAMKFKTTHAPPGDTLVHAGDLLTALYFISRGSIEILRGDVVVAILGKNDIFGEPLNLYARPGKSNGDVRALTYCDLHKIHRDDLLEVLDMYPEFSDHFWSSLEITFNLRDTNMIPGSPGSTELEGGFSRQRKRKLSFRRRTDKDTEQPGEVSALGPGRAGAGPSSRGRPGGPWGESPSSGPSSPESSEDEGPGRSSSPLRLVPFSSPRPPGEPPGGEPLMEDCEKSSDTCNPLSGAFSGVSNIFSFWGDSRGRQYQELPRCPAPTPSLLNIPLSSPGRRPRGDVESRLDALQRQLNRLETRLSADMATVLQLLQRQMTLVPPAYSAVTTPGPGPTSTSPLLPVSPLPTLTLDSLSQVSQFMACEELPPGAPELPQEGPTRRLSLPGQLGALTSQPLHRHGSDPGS
CYP 3A4, sequence (P08684 whole entry): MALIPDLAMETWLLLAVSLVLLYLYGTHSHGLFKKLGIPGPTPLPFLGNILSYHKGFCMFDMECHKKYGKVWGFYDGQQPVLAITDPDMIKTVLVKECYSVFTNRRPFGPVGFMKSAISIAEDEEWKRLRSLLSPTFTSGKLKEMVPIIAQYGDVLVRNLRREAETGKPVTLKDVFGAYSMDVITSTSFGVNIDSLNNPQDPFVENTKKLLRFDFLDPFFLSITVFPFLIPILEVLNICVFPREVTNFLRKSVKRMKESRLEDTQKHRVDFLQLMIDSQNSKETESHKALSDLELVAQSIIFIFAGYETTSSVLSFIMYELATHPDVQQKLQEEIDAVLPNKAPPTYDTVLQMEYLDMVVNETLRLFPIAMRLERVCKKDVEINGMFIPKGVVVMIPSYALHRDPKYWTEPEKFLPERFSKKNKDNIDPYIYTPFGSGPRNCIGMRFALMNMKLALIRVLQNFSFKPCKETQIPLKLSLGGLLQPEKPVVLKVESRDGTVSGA

half-life [1]: 2.17 h | hepatocyte CLint [1]: 10.7 µL/min/1e6 cells | IC50 (PR): > 3160 nM | agonist cross-reactivity on PR (PR; in words): no agonist cross-reactivity | PR pIC50, antag. mode (PR; reporter assay, antag. mode): <5.5 | AUC ([3]; iv, 3 mg/kg): 3420 ng·h/mL | Cmax ([3]; iv, 3 mg/kg): 651 ng/mL | Vd ([3]; iv, 3 mg/kg): 49 L/kg | clearance ([3]; iv, 3 mg/kg): 13.3 mL/min/kg | half-life ([3]; iv, 3 mg/kg): 42 h | AUC ([3]; po, 10 mg/kg): 5090 ng·h/mL | Cmax ([3]; po, 10 mg/kg): 170 ng/mL | Tmax ([3]; po, 10 mg/kg): 8 h | bioavailability ([3]; po, 10 mg/kg): 44.4% | half-life ([3]; po, 10 mg/kg): 34 h | IC50 (CYP 3A4): > 10000 nM | IC50 (ESR1 Asp538Gly): 31.6 nM | AUC ([4]; iv): 41300 ng·h/mL | Cmax ([4]; iv): 4060 ng/mL | Vd ([4]; iv): 16 L/kg | clearance ([4]; iv): 3.33 mL/min/kg | half-life ([4]; iv): 63 h | AUC ([4]; po): 33700 ng·h/mL | Cmax ([4]; po): 1760 ng/mL | Tmax ([4]; po): 1.5 h | bioavailability ([4]; po): 89% | half-life ([4]; po): 106 h | Plasma free drug percentage [5]: 0.24% | IC50 (ERβ; Erβ pIC50, agonist mode, agonist mode): > 3160 nM | IC50 (ERβ; Erβ pIC50, antag. mode, antag. mode): 3.16 nM
Compound: CCCN1CC(Oc2ccc([C@@H]3c4[nH]c5ccccc5c4C[C@@H](C)N3CC(C)(C)F)cc2)C1 [compound 21, (1R,3R)-2-(2-Fluoro-2-methylpropyl)-3-methyl-1-(4-((1-propylazetidin-3-yl)oxy)phenyl)-2,3,4,9-tetrahydro-1H-pyrido[3,4-b]indole]
IC50 [2]: 6.31 nM | hERG inhibition (hERG ion channels): did not inhibit | IC50 (ST941/C cells): 31.6 nM
